Test system: sickle RBCs
Experiment: Phase 1: Lorrca Osmoscan in SCD patients
Type: in vivo, human
Procedure: In this study, SAD/MAD cohorts are randomized (3 to 1) to receive Compound 1 or placebo (P). Compound 1 was evaluated first in 4 healthy SAD cohorts and 4 healthy MAD (14-day dosing period) cohorts. Based on the safety, and PK/PD profile from HS, Compound 1 is then evaluated in 1 SCD SAD cohort and 2 SCD MAD cohorts. Specifically, based on the safety and pharmacokinetic/pharmacodynamics (PK/PD) profile in healthy volunteer studies, Compound 1 is evaluated in patients (pts) with SCD, first in a single dose (SD or SAD) cohort and then in multiple-dose (MD or MAD) cohorts (14-day and 12-week). Safety assessments include AEs, vital signs, ECGs and laboratory parameters. PK/PD blood sampling was performed on Day 1 (SAD/MAD) and Day 14 (MAD) and up to 72 h after the last dose and at the end-of-study visit. PD parameters included 2,3-DPG, ATP, and p50 in all cohorts with additional PD studies (including oxygen scan) performed only in the SCD cohorts. PD parameters included 2,3-DPG, ATP, p50, RBC deformability with controlled deoxygenation and reoxygenation (Lorrca® oxygen scan) and varying osmolality (Lorrca® osmoscan)). To maintain study blind, pt identifiers were removed when needed.
Functional evaluation of RBCs was performed using Laser-Optical Rotational Red Cell Analyzer (Lorrca®) technology (RR Mechatronics, Zwaag, The Netherlands). Osmoscan was performed for healthy subjects, and both Oxygenscan and Osmoscan analyses were undertaken for the patients with SCD. In brief, the Oxygenscan allows for the measurement and visualisation of RBC elongation in shear stress in an oxygen gradient, during deoxygenation and re-oxygenation, expressed as the elongation index (EI). […] Evaluated Osmoscan parameters included: EImax; Omin (osmolality at ELmax; hypotonic region), which corresponds to the value of the hypotonic osmolality at which 50% of the cells hemolyse in an osmotic fragility assay and provides information on the initial surface-to-volume ratio of the RBCs; and Ohyper (osmolality corresponding to 50% of the EImax; hypertonic region), which correlates with the initial intracellular viscosity of the cell sample. […]
The effects of a single dose of Compound 1 (700 mg) versus placebo on oxygen scan, oxygen affinity (p50), and osmoscan in SCD patients were evaluated. […] In order to measure the impact of Compound 1 on this critical function, the effect of Compound 1 compared to placebo on the deformability of SCD RBCs across an osmolality gradient was evaluated. […]

## O=C([C@H](CO)c1ccccc1)N1CC2=C(C1)CN(S(=O)(=O)c1cnc3c(c1)OCCO3)C2 (single isomer, unassigned) [Compound 1]
SCD single 700 mg, Post-dose (24 hours), median (range), pre-dose 0.483 (0.46, 0.57)
  EImax (Osmoscan): 0.478 (0.46, 0.57)
SCD single 700 mg, Post-dose (24 hours), median (range), pre-dose 108 (105, 121)
  Omin (Osmoscan): 117 (106, 124)
SCD single 700 mg, Post-dose (24 hours), median (range), pre-dose 380 (371, 399)
  Ohyper (Osmoscan): 400 (371, 412)
SCD, after the single 700 mg dose
  time to return to baseline of Oxygenscan/Osmoscan effects: 3 to 7 days

— US12128035B2, “Activating pyruvate kinase R” (Novo Nordisk Health Care AG, priority 2021, dated 2024)
